#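 How tested: cells in 96-well plates exposed to compound for 48 hours at five concentrations. TGI: total growth inhibition.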
# Columns and labels:
# Test in all cases: growth of human tumour cells (NCI), 48 h
# [1] = system: IGROV1 ovarian
# [2] = system: MDA-N
# [3] = system: NCI-H522 lung
# [4] = system: NCI/ADR-RES ovarian
# [5] = system: OVCAR-3 ovarian
# [6] = system: OVCAR-5 ovarian
# [7] = system: PC-3 prostate
# [8] = system: SF-268 CNS
# [9] = system: SF-539 CNS
# [10] = system: SK-MEL-28 melanoma
# [11] = system: SW-620 colon
# [12] = system: T-47D breast
# [13] = system: UACC-62 melanoma
# [14] = system: SF-295 CNS
Compound,TGI [1] [µM],TGI [2] [µM],TGI [3] [µM],TGI [4] [µM],TGI [5] [µM],TGI [6] [µM],TGI [7] [µM],TGI [8] [µM],TGI [9] [µM],TGI [10] [µM],TGI [11] [µM],TGI [12] [µM],TGI [13] [µM],TGI [14] [µM]
CSc1c(C#N)c(S)[nH]c(=O)c1C#N,> 100,> 100,> 100,> 100,> 100,> 100,> 100,> 100,> 100,> 100,> 100,> 100,> 100,–
S=C(N1CCN(c2ccccc2)CC1)N1CCN(c2ccccc2)CC1,> 100,> 100,> 100,> 100,> 100,> 100,> 100,> 100,–,> 100,> 100,> 100,> 100,> 100
O=C1C(S(=O)(=O)c2ccccc2)=C(CS(=O)(=O)c2ccccc2)[C@@H](OCc2ccccc2)[C@@H]1OCc1ccccc1,33.8,88.7,35.9,54.4,27.5,75.4,85.8,> 100,40.6,35.9,36.4,> 100,40,40.4
Cc1ccc(N=C2C(c3ccccc3)=C(SC3=C(c4ccccc4)C(=Nc4ccc(C)cc4)c4ccccc43)c3ccccc32)cc1,45.5,> 100,> 100,> 100,> 100,> 100,> 100,18.8,24.6,> 100,> 100,> 100,> 51.7,27.4
COC1=CC(=O)C2=C(C[C@@]3(C)C(=C2)C(CO)=CC[C@H]3O)C1=O,31.7,37.4,–,56.1,56.2,54.5,69.1,32.7,34.7,82.7,60.6,> 100,32.4,41.2
CC1=NN(c2nc(N)nc(/C(C#N)=C\c3cccc([N+](=O)[O-])c3)n2)C(C)(C)C1,34.1,> 33.3,–,> 66.7,26.9,> 100,> 53.8,> 65.1,36.5,> 65,> 51,64.8,> 40.2,52
N#Cc1c(O)c2ccccc2[nH]c1=O,> 100,> 100,> 100,> 100,> 100,> 100,> 100,–,> 100,> 100,> 100,> 100,> 100,> 100
O=c1c2ccccc2[nH]c2c(Cl)cc(Cl)c(N3CCCCC3)c12,48.2,63.1,64.3,83.4,> 100,> 100,> 100,–,46.6,> 100,84.8,> 100,> 10,> 100
Cc1ccc(N2C(N)=C(C#N)C(C#N)(C#N)C2c2ccccc2)cc1 (stereo not drawn),20.2,12,21.5,36.1,27.4,32.4,44.9,65.9,29.2,22.3,15.2,21.4,26.7,60.3
CC1(C)C2CCC(O)(C2)C1N (stereo not drawn),> 100,> 100,–,> 100,> 100,> 100,> 100,> 100,> 100,> 100,> 100,> 100,> 100,> 100
Cn1c(N=P(c2ccccc2)(c2ccccc2)c2ccccc2)c([N+](=O)[O-])c(=O)n(C)c1=O,> 100,> 100,> 100,> 100,> 100,> 100,> 100,> 100,> 100,–,> 100,> 100,> 100,> 100
Cc1c(F)c(NC(=O)CN(C)C)c2c(=O)cc(-c3ccc(NC(=O)CN(C)C)c(F)c3)oc2c1F,32.1,34,41.4,39.6,–,41.1,33.8,38.3,31.2,40.9,46.9,55.8,34.8,28.9
COC1CC(O[C@H]2CC[C@@]3(C)[C@@H](CC[C@]4(O)[C@@H]3CC[C@]3(C)[C@@H](C(C)=O)[C@H](OC(=O)CC(C)C)[C@@H](OC(=O)c5ccccc5)[C@@]34O)C2)OC(C)C1OC1CC(OC)C(OC2OC(C)C(O)C(OC)C2O)C(C)O1 (stereo partly drawn),> 25,> 25,> 25,> 25,> 25,> 25,> 25,> 25,> 25,> 25,> 25,> 25,–,> 25
O=C1NC(=S)NC(=O)C1=C/C=C/c1ccc([N+](=O)[O-])cc1,28.2,27.7,–,46.8,29.1,40.2,32.2,36.8,28.8,10.4,18.9,71.4,28.7,33.1
COc1ccc(C(=O)/C=C/c2ccc(OCC(=N)N)cc2)cc1,40.8,31.4,–,72,27.5,83.9,27.9,35.6,29.6,28.6,14.7,26.5,29,30
CCCNC(=O)N(C)C(=O)N1N=C(c2ccccc2)C1c1ccccc1 (stereo not drawn),> 100,> 100,> 100,> 100,> 100,–,> 100,–,> 100,> 100,> 100,> 100,> 100,> 100
CNC(=O)NS(=O)(=O)c1ccc(C)cc1,> 100,> 100,> 100,> 100,–,> 100,> 100,> 100,> 100,> 100,> 100,> 100,> 100,> 100

# From PubChem BioAssay (NCI)
